Laboratory results reported in ChEMBL document CHEMBL1149740, “New phenolic glucosides from the leaves of Eurya tigang” (J Nat Prod, 1992).
Values after ≈ are worked out from the molar mass of the structure shown.

Key:
T-24 = assay: Antitumor activity against human T24 cells; assay type: functional, cell-based
[1] = Antitumor activity against mouse keratinocytes; assay type: cell-based; details: Keratinocyte

| IC50 (T-24) [µg/mL] | IC50 [1] [µg/mL] | Compound |
| --- | --- | --- |
| 28.7 (≈ 64.3 µM) | 9.2 (≈ 20.6 µM) | O=C(/C=C/c1ccc(O)cc1)OC[C@H]1O[C@@H](OCCc2ccc(O)cc2)[C@H](O)[C@@H](O)[C@@H]1O [EUTIGOSIDE A] |
| 31.9 (≈ 69 µM) | 9.4 (≈ 20.3 µM) | O=C1C=CC(O)(CCO[C@@H]2O[C@H](COC(=O)/C=C/c3ccc(O)cc3)[C@@H](O)[C@H](O)[C@H]2O)C=C1 [EUTIGOSIDE B] |
| 29.3 (≈ 65.6 µM) | 12.6 (≈ 28.2 µM) | O=C1C=CC(O)(CCO[C@@H]2O[C@H](COC(=O)/C=C/c3ccccc3)[C@@H](O)[C@H](O)[C@H]2O)C=C1 [EUTIGOSIDE C] |
